Legend:
CDK9 = CDK9 (Homo sapiens (Human), UniProt P50750); experiment: Inhibition of kinase activity, CDK9; assay type: biochemical; conditions: co-factor cyclin K
Protocol: (§1) Compounds of the invention were assayed for activity against a variety of different kinases. Exemplary results are presented as calculated IC50 values (Table A1 & A2). In Table A1 and A2 “A” represents a calculated IC50 value of less than 100 nM; “B” represents a calculated IC50 value of greater than or equal to 100 nM and less than 1 μM; and “C” represents a calculated IC50 value of 1 μM or greater. The co-factors used for each kinase in the assays were as follows: CDK7: cyclin H and MNAT1; CDK2: cyclin A; CDK9: cyclin K.

[1] = system: Jurkat T-cell acute lymphoblastic leukemia; experiment: Inhibition of cell proliferation (CellTiter-Glo), Jurkat; assay type: cell-based; conditions: Homo sapiens, 72 hours incubation, CellTiter-Glo, 25,000 cells/well
Protocol: (§2) Exemplary compounds of the invention were tested at different concentrations. Cells were plated in 96-well plates at the following seeding densities: Jurkat T-cell acute lymphoblastic leukemia 25,000 cells/well; HCT116 colorectal carcinoma 8,000 cells/well; Kelly neuroblastoma 4,000 cells/well. The cells were treated with various concentration of compounds (ranging from 1 nM to 10 μM). DMSO solvent with no compound served as a control. Following incubation for 72 hours, cell survival following treatment with exemplary compounds described herein was assessed by CellTiter-Glo® Luminescent cell viability assay (Promega). IC50 values were determined using GRAPHPAD PRISM 6 software. Exemplary results are shown in Table A3, wherein “A” represents a calculated IC50 value of less than 500 nM; “B” represents a calculated IC50 value of greater than or equal to 500 nM and less than 5000 μM; and “C” represents a calculated IC50 value of 5000 μM or greater

SRC = SRC (Homo sapiens (Human), UniProt P12931); experiment: Inhibition of kinase activity, SRC; assay type: biochemical
Sequence of SRC (P12931 whole entry, looked up): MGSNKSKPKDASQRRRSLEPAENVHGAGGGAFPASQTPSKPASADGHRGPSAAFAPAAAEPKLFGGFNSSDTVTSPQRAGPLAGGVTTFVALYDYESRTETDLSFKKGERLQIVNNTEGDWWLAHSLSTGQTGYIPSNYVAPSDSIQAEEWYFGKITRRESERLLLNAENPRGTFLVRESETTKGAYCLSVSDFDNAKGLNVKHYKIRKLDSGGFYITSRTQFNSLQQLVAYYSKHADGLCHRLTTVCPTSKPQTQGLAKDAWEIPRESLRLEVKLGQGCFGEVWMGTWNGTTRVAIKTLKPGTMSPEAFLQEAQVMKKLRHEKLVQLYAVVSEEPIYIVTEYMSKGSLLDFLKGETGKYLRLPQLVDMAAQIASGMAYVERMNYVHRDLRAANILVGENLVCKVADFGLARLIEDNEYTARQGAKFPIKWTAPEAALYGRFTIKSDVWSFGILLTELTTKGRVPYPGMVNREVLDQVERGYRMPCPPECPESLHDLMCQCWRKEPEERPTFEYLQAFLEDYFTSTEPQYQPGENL
Protocol: as §1

[2] = system: HCT116 colorectal carcinoma; experiment: Inhibition of cell proliferation (CellTiter-Glo), HCT116; assay type: cell-based; conditions: Homo sapiens, HCT-116; 72 hours incubation, CellTiter-Glo, 8,000 cells/well
Protocol: as §2

CDK2 = CDK2 (Homo sapiens (Human), UniProt P24941); experiment: Inhibition of kinase activity, CDK2; assay type: biochemical; conditions: co-factor cyclin A
Protocol: as §1

RET = RET (Homo sapiens (Human), UniProt P07949); experiment: Inhibition of kinase activity, RET; assay type: biochemical
Sequence of RET (P07949 29-1114): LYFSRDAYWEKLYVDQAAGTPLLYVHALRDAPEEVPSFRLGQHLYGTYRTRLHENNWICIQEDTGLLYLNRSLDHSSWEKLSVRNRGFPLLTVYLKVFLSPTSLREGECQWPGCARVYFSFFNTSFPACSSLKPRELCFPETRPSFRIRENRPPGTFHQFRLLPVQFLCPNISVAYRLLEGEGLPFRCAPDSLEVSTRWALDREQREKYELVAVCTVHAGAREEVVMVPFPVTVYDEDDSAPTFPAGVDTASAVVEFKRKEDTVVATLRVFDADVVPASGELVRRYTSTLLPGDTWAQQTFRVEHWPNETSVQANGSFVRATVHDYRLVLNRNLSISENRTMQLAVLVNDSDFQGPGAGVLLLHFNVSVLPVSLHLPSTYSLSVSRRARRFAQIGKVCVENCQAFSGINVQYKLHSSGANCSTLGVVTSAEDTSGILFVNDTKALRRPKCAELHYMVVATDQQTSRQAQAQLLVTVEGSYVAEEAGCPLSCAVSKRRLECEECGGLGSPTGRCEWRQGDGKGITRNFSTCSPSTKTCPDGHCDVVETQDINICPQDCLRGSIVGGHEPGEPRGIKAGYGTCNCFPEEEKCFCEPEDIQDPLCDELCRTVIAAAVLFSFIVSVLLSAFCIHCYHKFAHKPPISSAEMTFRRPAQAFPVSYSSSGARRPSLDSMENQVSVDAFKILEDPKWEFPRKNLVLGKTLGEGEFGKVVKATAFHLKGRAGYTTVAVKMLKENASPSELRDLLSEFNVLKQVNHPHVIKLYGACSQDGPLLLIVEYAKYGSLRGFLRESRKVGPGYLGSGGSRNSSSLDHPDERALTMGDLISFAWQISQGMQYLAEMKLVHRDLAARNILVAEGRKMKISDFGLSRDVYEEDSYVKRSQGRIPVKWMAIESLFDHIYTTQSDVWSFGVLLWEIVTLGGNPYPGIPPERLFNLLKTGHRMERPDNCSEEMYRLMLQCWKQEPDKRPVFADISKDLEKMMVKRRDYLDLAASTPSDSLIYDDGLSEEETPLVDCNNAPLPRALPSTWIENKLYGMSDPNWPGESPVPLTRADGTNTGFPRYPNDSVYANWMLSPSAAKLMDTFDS
Protocol: as §1

HIPK4 = HIPK4 (Homo sapiens (Human), UniProt Q8NE63); experiment: Inhibition of kinase activity, HIPK4; assay type: biochemical
Sequence of HIPK4 (Q8NE63 whole entry): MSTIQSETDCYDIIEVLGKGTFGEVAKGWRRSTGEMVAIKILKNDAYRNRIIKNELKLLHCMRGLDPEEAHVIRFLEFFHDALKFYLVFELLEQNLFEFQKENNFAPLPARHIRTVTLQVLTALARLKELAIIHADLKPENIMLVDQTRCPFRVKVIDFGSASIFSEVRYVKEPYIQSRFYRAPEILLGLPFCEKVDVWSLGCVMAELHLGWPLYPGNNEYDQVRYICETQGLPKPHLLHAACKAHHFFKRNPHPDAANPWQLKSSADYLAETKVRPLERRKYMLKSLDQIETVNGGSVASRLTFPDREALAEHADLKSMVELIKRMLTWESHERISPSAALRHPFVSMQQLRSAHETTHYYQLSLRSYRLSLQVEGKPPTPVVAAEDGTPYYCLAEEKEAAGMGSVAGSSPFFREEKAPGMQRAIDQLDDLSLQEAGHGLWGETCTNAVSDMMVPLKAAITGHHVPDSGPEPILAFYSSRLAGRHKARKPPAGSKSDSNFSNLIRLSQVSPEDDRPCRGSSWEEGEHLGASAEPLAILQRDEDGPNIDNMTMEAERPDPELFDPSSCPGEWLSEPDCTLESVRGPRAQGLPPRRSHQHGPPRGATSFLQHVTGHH
Protocol: as §1

PRKCQ = PRKCQ (Homo sapiens (Human), UniProt Q04759); experiment: Inhibition of kinase activity, PRKCQ; assay type: biochemical
Protocol: as §1

Kelly neuroblastoma = experiment: Inhibition of cell proliferation (CellTiter-Glo), Kelly; assay type: cell-based; conditions: 72 hours incubation, CellTiter-Glo, 4,000 cells/well
Protocol: as §2

CHEK2 = CHEK2 (Homo sapiens (Human), UniProt O96017); experiment: Inhibition of kinase activity, CHEK2; assay type: biochemical
Sequence of CHEK2 (O96017 whole entry): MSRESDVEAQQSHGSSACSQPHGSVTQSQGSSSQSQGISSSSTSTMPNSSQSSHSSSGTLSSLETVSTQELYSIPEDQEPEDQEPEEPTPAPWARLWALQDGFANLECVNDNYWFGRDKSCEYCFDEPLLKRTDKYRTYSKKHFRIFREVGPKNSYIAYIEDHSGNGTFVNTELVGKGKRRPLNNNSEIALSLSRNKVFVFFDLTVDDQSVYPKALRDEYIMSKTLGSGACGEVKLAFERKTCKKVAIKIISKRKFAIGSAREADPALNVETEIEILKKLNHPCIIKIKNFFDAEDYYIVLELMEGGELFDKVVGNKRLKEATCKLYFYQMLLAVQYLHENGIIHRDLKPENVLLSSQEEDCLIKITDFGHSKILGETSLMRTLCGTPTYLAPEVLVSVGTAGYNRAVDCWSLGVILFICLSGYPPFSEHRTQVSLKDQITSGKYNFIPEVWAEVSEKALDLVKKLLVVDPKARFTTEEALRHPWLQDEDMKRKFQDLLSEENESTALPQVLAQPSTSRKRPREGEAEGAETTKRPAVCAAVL
Protocol: as §1

CDK7 [3] = biological target: T1, CDK7 (Homo sapiens (Human), UniProt P50613); experiment: Inhibition of kinase activity, CDK7; assay type: biochemical; conditions: co-factors cyclin H and MNAT1
T1 sequence (P50613 whole entry): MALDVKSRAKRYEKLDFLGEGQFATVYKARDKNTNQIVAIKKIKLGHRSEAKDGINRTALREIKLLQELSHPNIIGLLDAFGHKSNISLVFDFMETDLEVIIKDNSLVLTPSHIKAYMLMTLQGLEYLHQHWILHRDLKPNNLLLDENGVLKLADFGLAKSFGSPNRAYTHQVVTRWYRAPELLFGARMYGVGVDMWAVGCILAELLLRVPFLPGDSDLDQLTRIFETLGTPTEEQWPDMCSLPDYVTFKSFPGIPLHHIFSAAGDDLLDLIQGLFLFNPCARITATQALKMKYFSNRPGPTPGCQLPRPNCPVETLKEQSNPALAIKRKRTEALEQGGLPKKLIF
T1 sequence (P51946 whole entry partner): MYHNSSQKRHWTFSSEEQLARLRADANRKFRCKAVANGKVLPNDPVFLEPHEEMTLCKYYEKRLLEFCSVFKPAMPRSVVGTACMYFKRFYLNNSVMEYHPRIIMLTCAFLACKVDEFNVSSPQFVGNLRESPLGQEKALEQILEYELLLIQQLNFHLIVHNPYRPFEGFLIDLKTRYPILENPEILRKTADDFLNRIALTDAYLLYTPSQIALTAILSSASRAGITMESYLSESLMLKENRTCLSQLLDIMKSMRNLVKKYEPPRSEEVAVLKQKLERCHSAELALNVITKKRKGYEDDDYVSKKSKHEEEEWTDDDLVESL
T1 sequence (P51948 whole entry partner): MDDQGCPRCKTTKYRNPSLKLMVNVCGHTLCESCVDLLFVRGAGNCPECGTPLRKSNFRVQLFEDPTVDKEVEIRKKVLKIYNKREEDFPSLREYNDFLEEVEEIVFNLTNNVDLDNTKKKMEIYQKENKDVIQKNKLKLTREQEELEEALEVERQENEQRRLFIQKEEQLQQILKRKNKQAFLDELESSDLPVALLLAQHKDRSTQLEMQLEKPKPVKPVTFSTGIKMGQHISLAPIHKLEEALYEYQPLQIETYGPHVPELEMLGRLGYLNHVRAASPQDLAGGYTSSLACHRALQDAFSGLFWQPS
Protocol: as §1

FGR = FGR (Homo sapiens (Human), UniProt P09769); experiment: Inhibition of kinase activity, FGR; assay type: biochemical
Sequence of FGR (P09769 whole entry): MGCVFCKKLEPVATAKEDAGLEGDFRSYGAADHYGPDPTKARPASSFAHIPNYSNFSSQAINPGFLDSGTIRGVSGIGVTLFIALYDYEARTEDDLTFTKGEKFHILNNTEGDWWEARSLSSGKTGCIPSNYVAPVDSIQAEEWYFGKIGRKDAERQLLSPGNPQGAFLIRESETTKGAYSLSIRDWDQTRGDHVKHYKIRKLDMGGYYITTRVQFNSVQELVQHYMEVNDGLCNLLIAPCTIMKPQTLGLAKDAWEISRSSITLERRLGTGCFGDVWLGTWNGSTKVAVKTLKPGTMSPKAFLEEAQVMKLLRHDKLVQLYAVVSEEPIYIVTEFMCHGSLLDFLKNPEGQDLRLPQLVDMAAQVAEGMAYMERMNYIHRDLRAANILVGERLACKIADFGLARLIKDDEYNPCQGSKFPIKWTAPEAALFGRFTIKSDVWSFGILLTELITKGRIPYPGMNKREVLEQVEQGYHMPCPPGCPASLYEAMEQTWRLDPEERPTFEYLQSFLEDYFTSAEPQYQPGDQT
Protocol: as §1

CDK7 [4] = biological target: T1, CDK7; experiment: Labeling of CDK7 with an inhibitor (CAK complex, nano LC-MS); assay type: binding; conditions: 10-fold molar excess of compound, 6 hrs at 37° C., trypsin digest
Protocol: CAK complex (Millipore cat#14-476) in 40 mM Hepes pH 7.4, 150 mM NaCl, 5% glycerol and 1 mM DTT with protease and phosphatase inhibitors was incubated with a 10-fold molar excess of Compound 101 for 6 hrs at 37° C. Proteins were resolved by SDS-PAGE, bands corresponding to CDK7 were digested in-gel with trypsin, and peptides analyzed by nano LC-MS using an Orbitrap XL mass spectrometer (ThermoFisher Scientific, San Jose, Calif.). Efficiency of labeling was estimated from the reduction in signal of the Cys312 containing peptide […] (SEQ ID NO: 3) compared to DMSO control. Signals from CDK7 peptides VPFLPGDSDLDQLTR (SEQ ID NO: 1) and LDFLGEGQFATVYK were used for normalization. See FIG. 1 for the total ion chromatograms (TIC) and extracted ion chromatograms (EIC) of the CDK7 peptides treated with DMSO (A-D) or Compound 101 (E-H). The labeled peptide was detected by mass spectrometry, as shown in the spectrum of FIG. 2.

MELK = MELK (Homo sapiens (Human), UniProt Q14680); experiment: Inhibition of kinase activity, MELK; assay type: biochemical
Sequence of MELK (Q14680 whole entry): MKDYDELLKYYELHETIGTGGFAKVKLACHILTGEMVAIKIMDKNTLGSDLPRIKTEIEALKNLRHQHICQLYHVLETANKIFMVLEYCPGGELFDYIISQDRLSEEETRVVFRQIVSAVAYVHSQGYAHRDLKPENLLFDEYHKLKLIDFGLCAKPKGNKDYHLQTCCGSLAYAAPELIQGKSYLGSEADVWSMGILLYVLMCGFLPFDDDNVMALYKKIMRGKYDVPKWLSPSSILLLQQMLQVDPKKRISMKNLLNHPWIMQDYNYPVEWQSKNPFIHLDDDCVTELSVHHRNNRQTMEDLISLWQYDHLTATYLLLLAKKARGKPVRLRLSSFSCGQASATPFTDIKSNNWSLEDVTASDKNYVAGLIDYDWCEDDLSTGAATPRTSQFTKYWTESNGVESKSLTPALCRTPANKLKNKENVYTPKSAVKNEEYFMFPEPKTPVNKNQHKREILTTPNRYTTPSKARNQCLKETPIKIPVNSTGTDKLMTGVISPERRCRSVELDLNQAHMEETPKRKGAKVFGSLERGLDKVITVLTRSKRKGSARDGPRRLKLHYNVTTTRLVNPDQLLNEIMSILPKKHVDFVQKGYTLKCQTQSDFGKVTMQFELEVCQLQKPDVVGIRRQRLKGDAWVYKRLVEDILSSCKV
Protocol: as §1

For C=CC(=O)Nc1ccc(C(=O)Nc2cccc(Nc3n[nH]c4c3CN(C(=O)N[C@H](CN(C)C)c3ccccc3)C4(C)C)c2)cc1 [Compound 101, (S)-3-((3-(4-acrylamidobenzamido)phenyl)amino)-N-(2-(dimethylamino)-1-phenylethyl)-6,6-dimethyl-4,6-dihydropyrrolo[3,4-c]pyrazole-5(1H)-carboxamide], the IC50 (CDK9) was no less than 1 µM, the IC50 [1] was less than 0.5 µM and the IC50 (SRC) was less than 0.1 µM. It also gave an IC50 [2] of less than 0.5 µM, an IC50 (CDK2) of no less than 1 µM and an IC50 (RET) of less than 0.1 µM. It also gave an IC50 (HIPK4) of 0.1 to 1 µM, an IC50 (PRKCQ) of less than 0.1 µM and an IC50 (Kelly neuroblastoma) of 0.5 to 5000 µM. It also gave an IC50 (CHEK2) of less than 0.1 µM, an IC50 (CDK7 [3]) of less than 0.1 µM and an IC50 (FGR) of less than 0.1 µM. For the same molecule, the “Covalent labeling of CDK7 peptide detected by mass spectrometry” value (CDK7 [4]) was “labeled with Compound 101 at Cys312” and the IC50 (MELK) was 0.1 to 1 µM.
